Test system: 18 h. fasted Wistar rats
Test: hypoglycaemic activity in 18 h. fasted Wistar rats
Assay type: in vivo
Protocol: The compound 8-(C-β-D-glucopyranosyl)-7,3′,4′-trihydroxyflavone has been evaluated for hypoglycaemic activity in 18 h. fasted Wistar rats. […] The mean fall recorded was 24 mg/100 ml. blood, from initial mean of 92 to mean of 68 mg/100 ml. blood.

O=c1cc(-c2ccc(O)c(O)c2)oc2c([C@@H]3O[C@H](CO)[C@@H](O)[C@H](O)[C@H]3O)c(O)ccc12 [8-(C-β-D-glucopyranosyl)-7,3′,4′-trihydroxyflavone]
hypoglycaemic effect (10 mg/kg p. o.): hypoglycaemic effect was recorded in all the treated rats
mean (blood sugar) after treatment (after 10 mg/kg p. o.): 68 mg/100 ml. blood
initial mean (blood sugar) (before treatment with 10 mg/kg p. o.): 92 mg/100 ml. blood
mean fall (blood sugar) (compound at 10 mg/kg p. o.): 24 mg/100 ml. blood
